Reference: patent publication US7927791B2, “Methods for identifying small molecules that modulate premature translation termination and nonsense mediated mRNA decay” (PTC Therapeutics, Inc., priority 2002, dated 2011)

What was measured:
[1] = test system: HIV-1 TAR element TAR RNA oligonucleotide; assay: Gel retardation assay by automated capillary electrophoresis (Tat peptide and TAR RNA); assay type: binding; settings: increasing concentrations of Tat peptide, SCE9610 apparatus, FIG. 6
Protocol: FIG. 6. Gel retardation analysis to detect peptide-RNA interactions. In reactions containing increasing concentrations of Tat47-58 peptide (0.1 mM, 0.2 mM, 0.4 mM, 0.8 mM, 1.6 mM) 50 pmole TAR RNA oligonucleotide was added in TK buffer. The reaction mixture was then heated at 90° C. for 2 min and allowed to cool slowly to 24° C. The reactions were loaded onto a SCE9610 automated capillary electrophoresis apparatus (SpectruMedix; State College, Pennsylvania). The peaks correspond to the amount of free TAR RNA (“TAR”) or the Tat-TAR complex (“Tat-TAR”). The concentration of peptide added is indicated below each lane.
(§1) Tris-potassium chloride (TK) buffer is composed of 50 mM Tris-HCl pH 7.4, 20 mM KCl, 0.1% Triton X-100, and 0.5 mM MgC2. Tris-borate-EDTA (IBE) buffer is composed of 45 mM Tris-borate pH 8.0, and 1 mM EDTA. Tris-Potassium chloride-magnesium (TKM) buffer is composed of 50 mM Tris-HCl pH 7.4, 20 mM KCl, 0.1% Triton X-100 and 5 mM MgCl2.
RNA oligonucleotides were purchased from Dharmacon, Inc, Lafayette, Colo.). 500 pmole of a 5′ fluorescein labeled oligonucleotide corresponding to the HIV-1 TAR element TAR RNA (5′-[…]-3′ (SEQ ID NO: 2); Huq et al., 1999, Nucleic Acids Research. 27:1084-1093; Hwang et al., 1999, Proc. Natl. Acad. Sci. USA 96:12997-13002) was used. […]

[2] = test system: HIV-1 TAR element TAR RNA oligonucleotide; assay: Gel retardation analysis of Tat peptide binding to TAR RNA (non-denaturing polyacrylamide gel); settings: 12% non-denaturing polyacrylamide gel, TK buffer, FIG. 2
Protocol: FIG. 2. Gel retardation analysis to detect peptide-RNA interactions. In 20 μl reactions containing 50 pmole end-labeled TAR RNA oligonucleotide, increasing concentrations of Tat47-58 peptide (0.1 uM, 0.2 uM, 0.4 uM, 0.8 uM, 1.6 uM) was added in TK buffer. The reaction mixture was then heated at 90° C for 2 min and allowed to cool slowly to 24° C. 10 μl of 30% glycerol was added to each sample and applied to a 12% non-denaturing polyacrylamide gel. The gel was electrophoresed using 1200 volt-hours at 4° C. in TBE Buffer. Following electrophoresis, the gel was dried and the radioactivity was quantitated with a phosphorimager. The concentration of peptide added is indicated above each lane.
as §1, with “MgCl2.” for “MgC2.”, “(TBE)” for “(IBE)”
RNA oligonucleotides were purchased from Dharmacon, Inc, Lafayette, Colo.). […] The gel was exposed to an intensifying screen and radioactivity was quantitated using a Typhoon phosporimager molecular Dynamics).

[3] = test system: HIV TAR RNA element oligonucleotide; assay: Gel mobility shift specificity control: gentamicin with an unrelated oligonucleotide; assay type: binding; settings: incubated with 10 mg/ml gentamicin, FIG. 4
Protocol: (§2) FIG. 4. The presence of 10 pg/ml gentamicin produces a gel mobility shift in the presence of the 16S rRNA oligonucleotide. 20 μl reactions containing increasing concentrations of gentamicin (100 ng/ml, 10 ng/ml, 1 ng/ml, 100 pg/ml, and 10 pg/ml) were added to 50 pmole end-labeled RNA oligonucleotide in TKM buffer were treated as described for FIG. 3.
RNA oligonucleotides were purchased from Dharmacon, Inc, Lafayette, Colo.). 500 pmole of either a 5′ fluorescein labeled oligonucleotide corresponding to the 16S rRNA A site (5′-[…]-3′ (SEQ ID NO:1); Moazed & Noller, 1987, Nature 327:389-394; Woodcock et al., 1991, EMBO J. 10:3099-3103; Yoshizawa et al., 1998, EMBO J. 17:6437-6448) or a 5′ fluorescein labeled oligonucleotide corresponding to the HIV-1 TAR element TAR RNA (5′-[…]-3′ (SEQ ID NO: 2); Huq et al., 1999, Nucleic Acids Research. 27:1084-1093; Hwang et al., 1999, Proc. Natl. Acad. Sci. USA 96:12997-13002) was 3′ labeled with 5′-^32P cytidine 3′,5′-bis(phosphate) (NEN) and T4 RNA ligase (NEBiolabs) in 10% DMSO as per manufacturer's instructions. The labeled oligonucleotides were purified using G-25 Sephadex columns (Boehringer Mannheim). […] The gel was exposed to an intensifying screen and radioactivity was quantitated using a Typhoon phosporimager molecular Dynamics). […]

[4] = test system: RNA oligonucleotide corresponding to the 16S rRNA A site; assay: Gel mobility shift assay of gentamicin binding to the 16S rRNA A site oligonucleotide
Protocol: FIG. 3. Gentamicin interacts with an oligonucleotide corresponding to the 16S rRNA. 20 μl reactions containing increasing concentrations of gentamicin (1 ng/ml, 10 ng/ml, 100 ng/ml, 1 μg/ml, 10 μg/ml, 50 μg/ml, 500 μg/ml) were added to 50 pmole end-labeled RNA oligonucleotide in TKM buffer, heated at 90° C. for 2 min and allowed to cool slowly to 24° C. 10 μl of 30% glycerol was added to each sample and the samples were applied to a 13.5% non-denaturing polyacrylamide gel. The gel was electrophoresed using 1200 volt-hours at 4° C. in TBE Buffer. Following electrophoresis, the gel was dried and the radioactivity was quantitated using a phosphorimager. The concentration of gentamicin added is indicated above each lane.
as §2
FIG. 5. Gentamicin binding to the 16S rRNA oligonucleotide is weak in the absence of MgCl2.
as §1, with “MgCl2.” for “MgC2.”, “(TBE)” for “(IBE)”
RNA oligonucleotides were purchased from Dharmacon, Inc, Lafayette, Colo.). 500 pmole of either a 5′ fluorescein labeled oligonucleotide corresponding to the 16S rRNA A site (5′-[…]-3′ (SEQ ID NO:1); Moazed & Noller, 1987, Nature 327:389-394; Woodcock et al., 1991, EMBO J. 10:3099-3103; Yoshizawa et al., 1998, EMBO J. 17:6437-6448) or a 5′ fluorescein labeled oligonucleotide corresponding to the HIV-1 TAR element TAR RNA (5′-[…]-3′ (SEQ ID NO: 2); Huq et al., 1999, Nucleic Acids Research. 27:1084-1093; Hwang et al., 1999, Proc. Natl. Acad. Sci. USA 96:12997-13002) was 3′ labeled with 5′-^32P cytidine 3′,5′-bis(phosphate) (NEN) and T4 RNA ligase (NEBiolabs) in 10% DMSO as per manufacturer's instructions. The labeled oligonucleotides were purified using G-25 Sephadex columns (Boehringer Mannheim). For Tat-TAR gel retardation reactions the method of Huq et al. (Nucleic Acids Research, 1999, 27:1084-1093) was utilized with TK buffer containing 0.5 mM MgCl2 and a 12-mer Tat peptide (YGRKKRRQRRRP (SEQ ID NO: 3; single letter amino acid code). For 16S rRNA-gentamicin reactions, the method of Huq et al was used with TKM buffer. In 20 μl reaction volumes 50 pmoles of ^32P cytidine-labeled oligonucleotide and either gentamicin sulfate (Sigma) or the short Tat peptide (Tat47-58) in TK or TKM buffer were heated at 90° C. for 2 minutes and allow to cool to room temperature (approximately 24° C.) over 2 hours. Then 10 μl of 30% glycerol was added to each reaction tube and the entire sample was loaded onto a TBE non-denaturing polyacrylamide gel and electrophoresed at 1200-1600 volt-hours at 4° C. The gel was exposed to an intensifying screen and radioactivity was quantitated using a Typhoon phosporimager molecular Dynamics).

Substance | shift of TAR RNA peak in capillary electrophoresis [1] | gel mobility shift of TAR RNA oligonucleotide in the presence of the peptide [2] | gel mobility shift of unrelated HIV TAR RNA oligonucleotide [3] | lowest gentamicin concentration that produces the mobility shift ([4]; TKM buffer (5 mM MgCl2), 1 ng/ml to 500 μg/ml tested, FIG. 3) [ng/mL] | gel shift when gentamicin is added after renaturation has proceeded to 75° C. ([4]; added after the renaturation step has proceeded to 75° C.) | gentamicin binding to the 16S rRNA oligonucleotide in the absence of MgCl2 ([4]; buffer without MgCl2, FIG. 5) | gel shift when gentamicin is added at 90° C. or 85° C. ([4]; gentamicin present during entire denaturation/renaturation cycle, data not shown) | gentamicin concentration that must be added to produce a gel shift when MgCl2 is not present ([4]; no MgCl2 (TK buffer), FIG. 5) [mg/mL] | mobility shift of 16S rRNA A site oligonucleotide on addition of gentamicin ([4]; varying concentrations, TKM buffer, FIG. 3)
YGRKKRRQRRRP [Tat47-58 peptide] | a clear shift is visible | a clear shift is visible |  |  |  |  |  |  | 
gentamicin |  |  | does not result in a gel mobility shift | ≤ 10 | a mobility shift is not produced | weak | a gel shift is visualized | 1 | produces a mobility shift
